In the supplement of paper PMC10132981, “Formate overflow drives toxic folate trapping in MTHFD1 inhibited cancer cells” (Nature Metabolism, 2023):

Columns and labels:
Assay in all cases: EC50 for viability (resazurin, 96 h)
[1] = system: SW620 MTHFD2 -/-
[2] = system: HCT116; conditions: RPMI+GlutaMAX (10% FBS, 1% P/S)
[3] = system: SW620 MTHFD2-/-; conditions: RPMI+GlutaMAX (5% dFBS, 1% P/S)
[4] = system: SW620 WT
[5] = system: SW620

Nc1nc(N)c(CC(=O)Nc2cnc(C(=O)N[C@@H](CCC(=O)O)C(=O)O)c(F)c2)c(=O)[nH]1 [TH9619]
Conditions	EC50 for viability [µM]
[1], RPMI+GlutaMAX (5% dFBS, 1% P/S), metabolite supplement: Hypoxanthine	0.025
[1], RPMI+GlutaMAX (5% dFBS, 1% P/S), metabolite supplement: Sodium Formate	0.00643
[1], RPMI+GlutaMAX (5% dFBS, 1% P/S), metabolite supplement: Thymidine	0.000821
[1], RPMI+GlutaMAX (5% dFBS, 1% P/S), metabolite supplement: Thymidine + Sodium Formate	> 10
[1], RPMI+GlutaMAX (5% dFBS, 1% P/S), metabolite supplement: Vehicle	0.00103
[1], RPMI+GlutaMAX (10% FBS, 1% P/S), metabolite supplement: None	0.00282
[1], RPMI+GlutaMAX (10% dFBS, 1% P/S), metabolite supplement: None	0.993
[4], RPMI+GlutaMAX (5% dFBS, 1% P/S), metabolite supplement: Adenine	0.0189
[4], RPMI+GlutaMAX (5% dFBS, 1% P/S), metabolite supplement: Adenosine	0.0183
[4], RPMI+GlutaMAX (5% dFBS, 1% P/S), metabolite supplement: Guanosine	0.0242
[4], RPMI+GlutaMAX (5% dFBS, 1% P/S), metabolite supplement: Hypoxanthine	0.0195
[4], RPMI+GlutaMAX (5% dFBS, 1% P/S), metabolite supplement: Hypoxanthine + AICAr 10 µM	0.0197
[4], RPMI+GlutaMAX (5% dFBS, 1% P/S), metabolite supplement: Hypoxanthine + AICAr 30 µM	0.0303
[4], RPMI+GlutaMAX (5% dFBS, 1% P/S), metabolite supplement: Hypoxanthine + AICAr 50 µM	0.0759
[4], RPMI+GlutaMAX (5% dFBS, 1% P/S), metabolite supplement: Hypoxanthine + AICAr 100 µM	1.67
[4], RPMI+GlutaMAX (5% dFBS, 1% P/S), metabolite supplement: Sodium Formate	0.944
[4], RPMI+GlutaMAX (5% dFBS, 1% P/S), metabolite supplement: Thymidine	1.9
[4], RPMI+GlutaMAX (5% dFBS, 1% P/S), metabolite supplement: Thymidine + Sodium Formate	> 10
[4], RPMI+GlutaMAX (5% dFBS, 1% P/S), metabolite supplement: Vehicle	0.861
[4], RPMI+GlutaMAX (5% dFBS, 1% P/S, 10 uM Hypoxanthine), metabolite supplement: Thymidine 0.1 uM	0.0189
[4], RPMI+GlutaMAX (5% dFBS, 1% P/S, 10 uM Hypoxanthine), metabolite supplement: Thymidine 0.5 uM	0.0669
[4], RPMI+GlutaMAX (5% dFBS, 1% P/S, 10 uM Hypoxanthine), metabolite supplement: Thymidine 1uM	3.91
[4], RPMI+GlutaMAX (5% dFBS, 1% P/S, 10 uM Hypoxanthine), metabolite supplement: Thymidine 5uM	> 10
[4], RPMI+GlutaMAX (5% dFBS, 1% P/S, 10 uM Hypoxanthine), metabolite supplement: Thymidine 10 uM	> 10
[4], RPMI+GlutaMAX (5% dFBS, 1% P/S, 10 uM Hypoxanthine), metabolite supplement: Thymidine 25 uM	> 10
[4], RPMI+GlutaMAX (5% dFBS, 1% P/S, 10 uM Hypoxanthine), metabolite supplement: Thymidine 50 uM	> 10
[4], RPMI+GlutaMAX (5% dFBS, 1% P/S, 50 uM Hypoxanthine), metabolite supplement: Thymidine 0.1 uM	0.0174
[4], RPMI+GlutaMAX (5% dFBS, 1% P/S, 50 uM Hypoxanthine), metabolite supplement: Thymidine 0.5 uM	0.0263
[4], RPMI+GlutaMAX (5% dFBS, 1% P/S, 50 uM Hypoxanthine), metabolite supplement: Thymidine 1uM	0.0319
[4], RPMI+GlutaMAX (5% dFBS, 1% P/S, 50 uM Hypoxanthine), metabolite supplement: Thymidine 5uM	> 10
[4], RPMI+GlutaMAX (5% dFBS, 1% P/S, 50 uM Hypoxanthine), metabolite supplement: Thymidine 10 uM	> 10
[4], RPMI+GlutaMAX (5% dFBS, 1% P/S, 50 uM Hypoxanthine), metabolite supplement: Thymidine 25 uM	> 10
[4], RPMI+GlutaMAX (5% dFBS, 1% P/S, 50 uM Hypoxanthine), metabolite supplement: Thymidine 50 uM	> 10
[4], RPMI+GlutaMAX (10% FBS, 1% P/S), metabolite supplement: None	0.0329
[4], RPMI+GlutaMAX (10% dFBS, 1% P/S), metabolite supplement: None	0.00493
[5], HPLM (5% dFBS, 1% P/S), metabolite supplement: Vehicle	0.0113
[5], RPMI+GlutaMAX (5% FBS, 1% P/S), metabolite supplement: Vehicle	0.0249
[5], RPMI+GlutaMAX (5% dFBS, 1% P/S), metabolite supplement: 0 nM Pyrazofurin	1.03
[5], RPMI+GlutaMAX (5% dFBS, 1% P/S), metabolite supplement: 25 nM Pyrazofurin	1.16
[5], RPMI+GlutaMAX (5% dFBS, 1% P/S), metabolite supplement: 50 nM Pyrazofurin	0.365
[5], RPMI+GlutaMAX (5% dFBS, 1% P/S), metabolite supplement: 0.5 µM Hypoxanthine	0.287
[5], RPMI+GlutaMAX (5% dFBS, 1% P/S), metabolite supplement: 1.0 µM Hypoxanthine	0.0755
[5], RPMI+GlutaMAX (5% dFBS, 1% P/S), metabolite supplement: 5.0 µM Hypoxanthine	0.0141
[5], RPMI+GlutaMAX (5% dFBS, 1% P/S), metabolite supplement: 10 µM Hypoxanthine	0.0132
[5], RPMI+GlutaMAX (5% dFBS, 1% P/S), metabolite supplement: 12,5 nM Pyrazofurin	1.42
[5], RPMI+GlutaMAX (5% dFBS, 1% P/S), metabolite supplement: 25 µM Hypoxanthine	0.0146
[5], RPMI+GlutaMAX (5% dFBS, 1% P/S), metabolite supplement: 50 µM Hypoxanthine	0.0139
[5], RPMI+GlutaMAX (5% dFBS, 1% P/S), metabolite supplement: Allopurinol	0.312
[5], RPMI+GlutaMAX (5% dFBS, 1% P/S), metabolite supplement: Allopurinol + Hypoxanthine	0.0155
[5], RPMI+GlutaMAX (5% dFBS, 1% P/S), metabolite supplement: Deoxyuridine	0.267
[5], RPMI+GlutaMAX (5% dFBS, 1% P/S), metabolite supplement: Deoxyuridine + Hypoxanthine	0.00978
[5], RPMI+GlutaMAX (5% dFBS, 1% P/S), metabolite supplement: Febuxostat	0.766
[5], RPMI+GlutaMAX (5% dFBS, 1% P/S), metabolite supplement: Febuxostat + Hypoxanthine	0.0252
[5], RPMI+GlutaMAX (5% dFBS, 1% P/S), metabolite supplement: H2O2	0.406
[5], RPMI+GlutaMAX (5% dFBS, 1% P/S), metabolite supplement: H2O2 + Hypoxanthine	0.0163
[5], RPMI+GlutaMAX (5% dFBS, 1% P/S), metabolite supplement: Hypoxanthine	0.0154
[5], RPMI+GlutaMAX (5% dFBS, 1% P/S), metabolite supplement: Orotic acid	0.309
[5], RPMI+GlutaMAX (5% dFBS, 1% P/S), metabolite supplement: Orotic acid + Hypoxanthine	0.0128
[5], RPMI+GlutaMAX (5% dFBS, 1% P/S), metabolite supplement: Uric acid	0.502
[5], RPMI+GlutaMAX (5% dFBS, 1% P/S), metabolite supplement: Vehicle	0.4
[5], RPMI+GlutaMAX (5% dFBS, 1% P/S, 50 µM Hypoxanthine), metabolite supplement: 0	0.0133
[5], RPMI+GlutaMAX (10% FBS, 1% P/S), metabolite supplement: Folic acid	4
[5], RPMI+GlutaMAX (10% FBS, 1% P/S), metabolite supplement: Folinic acid	> 10
[5], RPMI+GlutaMAX (10% FBS, 1% P/S), metabolite supplement: Hypoxanthine	0.0136
[5], RPMI+GlutaMAX (10% FBS, 1% P/S), metabolite supplement: Sodium Formate	0.0153
[5], RPMI+GlutaMAX (10% FBS, 1% P/S), metabolite supplement: Thymidine	0.516
[5], RPMI+GlutaMAX (10% FBS, 1% P/S), metabolite supplement: Thymidine + Folic acid	8.88
[5], RPMI+GlutaMAX (10% FBS, 1% P/S), metabolite supplement: Thymidine + Sodium Formate	0.538
[5], RPMI+GlutaMAX (10% FBS, 1% P/S), metabolite supplement: Vehicle	0.0226

EC50 for viability [µM]
Conditions	metabolite supplement: Hypoxanthine	metabolite supplement: Hypoxanthine + Formate	metabolite supplement: Thymidine
[2]	0.0135	–	1.19
[3]	4.23	0.0301	–
